For one data set, the system named is CDK1/cyclin B. As to conditions: cited from earlier work.
The subject of data set [1] is HCMV. Description: HCMV DNA abundance by slot blot hybridization in infected density-arrested LU cells. The format is cell-based, Human cytomegalovirus strain AD169. The conditions noted are these: 72 hr post-infection.
A short description of data set [2]: Tolerated dose in animals. The conditions noted are these: printed 'tolerated by rate'. In kind it is in vivo. An excerpt: The preferred dosage of CDK inhibitor in a parenteral administration may vary, depending upon the extent of the virus infection, the severity of the symptoms associated with the infection and patient age, weight and medical history. The number of administrations of the parenteral composition of the CDK inhibitor will also vary according to the response of the individual patient to the treatment. In one exemplary application, the dosage of CDK inhibitor may vary with the type of disease and the route of administration. Further studies with animal models of infection will completely define projected doses. […] Weaker CDK2 inhibitors will be needed at higher concentrations, and stronger, at lower.

For the next data set, the system named is non-infected LU cells. Briefly: Hematoxylin and eosin staining of non-infected LU cells. In kind it is cell-based, human. The conditions noted are these: 15 μM for 96 hr.
In another data set the test system is HCMV-infected LU cells. Briefly: Hematoxylin and eosin staining of HCMV-infected LU cells.
The test system of another data set is Human Cytomegalovirus. Description: Infectious HCMV yield by plaque assay from infected density-arrested LU cells. The format is cell-based, Human cytomegalovirus strain AD169. The conditions noted are these: for inhibition at 3.3 µM / inhibition at 10 µM / inhibition at 33 µM / inhibition at 100 µM: Human betaherpesvirus 5, 96 h.
In data set [3] the test system is HCMV. Briefly: Viral late antigen pp28 expression by immunofluorescence in HCMV-infected LU cells. The format is cell-based, Human cytomegalovirus. As to conditions: between 24 and 96 hr after infection in the presence of PAA. The protocol:
Cells were cultured on sterile glass coverslips. The cells were washed three times in PBS and fixed in acetone:methanol (1:1) at −20° C. for 10 min. The permeabilized cells were incubated with primary antibody diluted in PBS for 1 hr at 37° C. in a humidified chamber. […] The excess conjugate was removed by washing the cells in PBS for 30 min. After drying, the cells were mounted in PBS/glycerol (1:1) and examined with the aid of a Zeiss Photomicroscope III using a 40/1.0 Neofluar lens. Images were photographed on slide film.

For another data set, the system named is human lung fibroblasts. As to conditions: 100 μg/ml (0.75 mM); cited from earlier work.
A further data set concerns LU cells. As to conditions: within 24 hr after serum in the presence of PAA (about 68% without inhibitor).
For data set [4], the system named is HCMV-infected subconfluent LU cells. Briefly: Cell cycle distribution (DNA content, flow cytometry) following HCMV infection of subconfluent LU cells. As to conditions: for Percent cells in phase G0/G1 / Percent cells in phase G2/M / Percent cells in phase S: HCMV 5 PFU/cell + PAA 100 μg/ml, mean (SD). In general terms: In flow cytometry, cells or beads pass a laser one at a time.
Method: The DNA content of serum-arrested, HCMV-infected, subconfluent LU cells was analyzed by flow cytometry to determine to what extent productively infected cells initiate DNA synthesis.
Next, the DNA content of LU cells as a function of time after HCMV infection of subconfluent cells in the presence of PAA was analyzed.

[5] abbreviates: read-out: Percent inhibition of HCMV infectious yields, 3.3 μM, harvested 96 hrs.
The mark [6] stands for this setting: read-out: Percent inhibition of HCMV infectious yields, 10 μM (third line of each group), harvested 96 hrs.
[7] abbreviates: read-out: Percent inhibition of HCMV infectious yields, 10 μM, harvested 96 hrs.
Where [8] appears, read: read-out: Percent inhibition of HCMV infectious yields, 33 μM, harvested 96 hrs.
Where [9] appears, read: read-out: Percent inhibition of HCMV infectious yields, 100 μM, harvested 96 hrs.
The mark [10] stands for this setting: 10 μM (third line of each group), harvested 96 hrs.
Where [11] appears, read: 3.3 μM, harvested 96 hrs, read-out: Percent inhibition of HCMV infectious yields.
Setting [12] is: 10 μM (third line of each group), harvested 96 hrs, read-out: Percent inhibition of HCMV infectious yields.
The mark [13] stands for this setting: 10 μM, harvested 96 hrs, read-out: Percent inhibition of HCMV infectious yields.
[14] abbreviates: 33 μM, harvested 96 hrs, read-out: Percent inhibition of HCMV infectious yields.
The mark [15] stands for this setting: 100 μM, harvested 96 hrs, read-out: Percent inhibition of HCMV infectious yields.

Like-named read-outs stand apart in the source and are kept apart here.

As usually defined, the IC50 is the point on the concentration scale where inhibition reaches its midpoint. `Cc1ccc(C(=O)Nc2ccc(S(=O)(=O)O)c3cc(S(=O)(=O)O)cc(S(=O)(=O)O)c23)cc1NC(=O)c1cccc(NC(=O)Nc2cccc(C(=O)Nc3cc(C(=O)Nc4ccc(S(=O)(=O)O)c5cc(S(=O)(=O)O)cc(S(=O)(=O)O)c45)ccc3C)c2)c1` [Suramin]: the 50% inhibitory concentration (IC50) in the data set on CDK1/cyclin B was 4 µM.

Broadly, the inhibition is the drop in the measured response relative to a control, in per cent. As for `CC[C@H](CO)Nc1nc(NCc2ccccc2)c2ncn(C(C)C)c2n1` [Roscovitine], the “HCMV DNA abundance reduced by” value in the data set on HCMV [1] (1 μM) is reported as roughly 50%. Further, the “viral DNA abundance reduced by” value with HCMV [1] (10 μM) is reported as greater than 90%. Besides, the tolerated dose in data set [2] was 3 µg/kg. In addition, the “morphological changes of non-infected cells” value in the data set on non-infected LU cells is given as “no morphological changes”. The “morphology of HCMV-infected cells” value was “rounded and appeared to be undergoing cell death” with HCMV-infected LU cells (5 μM, 96 hr post-infection); “clearly dying or dead” in the data set on HCMV-infected LU cells (15 μM, 96 hr after infection). In the data set with Human Cytomegalovirus (2.5 μM, 96 hr post-infection), the “Infectious HCMV yields reduced by” value is greater than 90%. The inhibition at 3.3 µM in the data set with Human Cytomegalovirus (setting [5]) turned out to be 90.7%. The inhibition at 10 µM in the data set on Human Cytomegalovirus (setting [6]) is 96.5%; with Human Cytomegalovirus (setting [7]) it was 91.3%; in the data set on Human Cytomegalovirus (read-out: inhibition of infectious HCMV yields, 10 μM, 96 hr post-infection), greater than 99.9%. Besides, the inhibition at 33 µM with Human Cytomegalovirus (setting [8]) was 100%. For the same compound, the inhibition at 100 µM in the data set with Human Cytomegalovirus (setting [9]) is greater than 100%.

In the case of Indirubin-3′-monoxime, the concentration for half-maximal inhibition (IC50) in the data set on CDK1/cyclin B is 0.18 µM. Moreover, the “Percent inhibition of HCMV infectious yields” value in the data set on Human Cytomegalovirus (3.3 μM, harvested 96 hrs) amounted to 56.69%; in the data set with Human Cytomegalovirus (setting [10]) it was 99.9988%; in the data set on Human Cytomegalovirus (10 μM, harvested 96 hrs), 26.67%; with Human Cytomegalovirus (33 μM, harvested 96 hrs) it was 99.9976%; with Human Cytomegalovirus (100 μM, harvested 96 hrs), 99.9992%.

As for `CC(C)=CCNc1ncnc2nc[nH]c12` [Isopentenyladenine], the 50% inhibitory concentration (IC50) in the data set with CDK1/cyclin B was 55 µM.

For `COc1ccc(CNc2nc(N(CCO)CCO)nc3c2ncn3C(C)C)cc1` [CVT-313], the IC50 in the data set with CDK1/cyclin B was 4.2 µM.

With `Cc1c2ccncc2c(C)c2c1[nH]c1ccc(O)cc12` [9-hydroxyellipticine], in the data set on CDK1/cyclin B, the IC50 was 1 µM.

`CC(C)[C@H](CO)Nc1nc(Nc2cc(N)cc(Cl)c2)c2ncn(C(C)C)c2n1` [NG97, aminopurvalanol]: the inhibition at 3.3 µM with Human Cytomegalovirus (setting [11]) was 99.9%. Moreover, the inhibition at 10 µM in the data set on Human Cytomegalovirus (setting [12]) is 100%; in the data set with Human Cytomegalovirus (setting [13]) it was 51.3%. The inhibition at 33 µM with Human Cytomegalovirus (setting [14]) was 100%. For the same compound, the inhibition at 100 µM in the data set with Human Cytomegalovirus (setting [15]) worked out at 100%.

Take `OCCCNc1cc(-c2ccnc(Nc3cccc(Cl)c3)n2)ccn1` [CGP60474]: the IC50 with CDK1/cyclin B is 0.02 µM.

For Purvalanol A&B, the half-maximal inhibitory concentration (IC50) with CDK1/cyclin B was 0.004 µM.

For `CN[C@@H]1C[C@H]2O[C@@](C)([C@@H]1OC)n1c3ccccc3c3c4c(c5c6ccccc6n2c5c31)C(=O)NC4` [Staurosporine], the IC50 in the data set on CDK1/cyclin B was 0.004 µM.

As to `CN1CC[C@H](c2c(O)cc(O)c3c(=O)cc(-c4ccccc4Cl)oc23)[C@H](O)C1` [Flavopiridol], the inhibition at 3.3 µM with Human Cytomegalovirus (setting [11]) is 100%. In addition, the inhibition at 10 µM with Human Cytomegalovirus (setting [12]) and in the data set with Human Cytomegalovirus (setting [13]) was 100% throughout. The inhibition at 33 µM with Human Cytomegalovirus (setting [14]) came out at 100%. Further, the inhibition at 100 µM with Human Cytomegalovirus (setting [15]) is 100%.

On to `O=C(O)CP(=O)(O)O` [PAA, phosphonoacetic acid], for which the pp28 expression entry with HCMV [3] was “could not be detected”. The “viral DNA replication” value in the data set on human lung fibroblasts is on record as “blocks viral DNA replication”. Further, the “cells in S, G2, or M phase” value with LU cells is reported as “about 57%”. For the same compound, the “Percent cells in phase G0/G1” value in data set [4] (0 hrs after treatment) was 93.3 (1.2) %; in data set [4] (24 hrs), 97.2 (0.4) %; in data set [4] (48 hrs), 97.1 (0.8) %; in [4] (72 hrs), 97.2 (0.3) %. Further, the “Percent cells in phase G2/M” value in data set [4] (0 hrs after treatment) is reported as 5.1 (1.0) %; in data set [4] (24 hrs) it was 1.9 (0.3) %; in data set [4] (48 hrs), 1.3 (0.4) %; in data set [4] (72 hrs), 0.9 (0.1) %. In addition, the “Percent cells in phase S” value in data set [4] (0 hrs after treatment) was 1.6 (0.2) %; in data set [4] (24 hrs) it was 0.9 (0.1) %; in data set [4] (48 hrs), 1.5 (0.4) %; in data set [4] (72 hrs), 1.9 (0.3) %. Further, the “DNA content of LU cells after HCMV infection in the presence of PAA” value in data set [4] (subconfluent cells) was “no detectable increase in DNA content”.

`N#Cc1cn([C@@H]2O[C@H](CO)[C@@H](O)[C@H]2O)c2ncnc(N)c12` [Toyocamycin]: the IC50 in the data set with CDK1/cyclin B is 0.88 µM.

Regarding `O=C1CCCO1` [γ-Butyrolactone], the half-inhibitory concentration (IC50) with CDK1/cyclin B is 0.6 µM.

Consider `CCCCc1c(-c2ccc(O)cc2)[nH]c2nccnc12` [RP107], for which the “Percent inhibition of HCMV infectious yields” value in the data set on Human Cytomegalovirus (3.3 μM, harvested 96 hrs) is 96.67%; in the data set on Human Cytomegalovirus (setting [10]) it was 99.98%; in the data set with Human Cytomegalovirus (10 μM, harvested 96 hrs) it was 74.67%; with Human Cytomegalovirus (33 μM, harvested 96 hrs), 99.9968%; in the data set on Human Cytomegalovirus (100 μM, harvested 96 hrs), 99.9984%.

Regarding `CN(C)c1ncnc2nc[nH]c12` [6-Dimethylaminopurine], in the data set with CDK1/cyclin B, the IC50 is 120 µM.

With `O=C1Cc2c([nH]c3ccc([N+](=O)[O-])cc23)-c2ccccc2N1` [Alsterpaullone], the inhibition at 3.3 µM with Human Cytomegalovirus (setting [5]) came out at 100%. Besides, the inhibition at 10 µM in the data set with Human Cytomegalovirus (setting [6]) and in the data set with Human Cytomegalovirus (setting [7]) was 100% each time. The inhibition at 33 µM in the data set with Human Cytomegalovirus (setting [8]) was found to be 100%. Moreover, in the data set with Human Cytomegalovirus (setting [9]), the inhibition at 100 µM turned out to be 100%.
